We go through 38 compounds from patent US10173996B2, “Histone demethylase inhibitors” (CELGENE QUANTICEL RESEARCH, INC., priority 2012, dated 2019).

This assay has as its system KDM5A and KDM5B (tri-methyl H3K4, ZR-75-1 breast cancer cell line). As to the kind of experiment: In vitro cell-based assay: tri-methyl H3K4 immuno-blotting in ZR-75-1 breast cancer cells. As to conditions: Homo sapiens, 72 hours with test compound, read-out: Cellular IC50. The source says: This quantitative immuno-blotting assay measures the amount tri-methylated histone H3 at amino acid Lysine number 4, a specific substrate […] of the direct enzymatic activity of the histone demethylases KDM5A and KDM5B from extracts of the ZR-75-1 breast cancer cell line.
This assay is a fluorometric immunoassay for the quantification of tri-methyl H3K4 extracted from cells treated with test compound and is used as a measure of the cellular inhibition of KDM5A/B.
ZR-75-1(PTEN null, ER+) breast cancer cells numbering 50,000 (ATCC) were seeded into each well of a 96-well tissue culture treated plate and then exposed to an 11 point dilution of test compound with final concentration ranges of test compound ranging from […] to 10 nM. […] Extracts were prepared containing all of the cellular histone material using detergent based lysis and sonication methods. These lysates were subsequently normalized for total protein content using a colorimetric bicinchonic acid assay (MicroBCA Pierce/Thermo Scientific). Normalized cell extracts were then subjected to typical immuno-blotting procedures using NuPage reagents (Life Technologies). Electrophoretically separated histones were then transferred and immobilized using polyvinylidene difluoride membrane (Immobilon-FL Millipore). The amount of tri-methylated lysine 4 of histone H3 was detected using an antibody specific to the tri-methylated state (Cell Signaling Technologies) and quantified on an infrared imager using a densitometry software package (Odyssey CLx, Image Studio, Li-Cor). This background subtracted densitometry value was reported as a ration of the GAPDH amount for that sample and then calculated as a percent of the DMSO treated sample. The software package XL-fit (IDBS) was then used to calculate a relative IC50 value for the dilution series of a given test compound according to the equation: fit=(D+((Vmax*(x^n))/((x^n)+(Km^n)))).
In the case of `O=C(O)c1ccnc(-n2nccc2OCc2ccccc2)c1` [Example 39, 2-(5-(benzyloxy)-1H-pyrazol-1-yl)isonicotinic acid], the half-inhibitory concentration (IC50) (commonly the concentration that gives 50% inhibition) was 1 to 10 µM.

With `O=C(O)c1ccnc(-n2nccc2OCc2ccc(F)cc2)c1` [Example 40, 2-{5-[(4-fluorobenzyl)oxy]-1H-pyrazol-1-yl}pyridine-4-carboxylic acid], the IC50 lay within 0.1 to 1 µM.

As for `O=C(O)c1ccnc(-n2nccc2OCc2cccc(F)c2)c1` [Example 41, 2-{5-[(3-fluorobenzyl)oxy]-1H-pyrazol-1-yl}pyridine-4-carboxylic acid], the IC50 was more than 10 µM.

Regarding `O=C(O)c1ccnc(-n2nccc2OCc2ccc(F)c(F)c2)c1` [Example 52, 2-{5-[(3,4-difluorobenzyl)oxy]-1H-pyrazol-1-yl}pyridine-4-carboxylic acid], the IC50 lay in the range of 0.1 to 1 µM.

Turning to `O=C(O)c1ccnc(-n2nccc2OCc2ccc(Cl)cc2)c1` [Example 53, 2-{5-[(4-chlorobenzyl)oxy]-1H-pyrazol-1-yl}pyridine-4-carboxylic acid], the IC50 fell in the range of 0.1 to 1 µM.

As for `Cc1ccc(COc2ccnn2-c2cc(C(=O)O)ccn2)cc1` [Example 55, 2-{5-[(4-methylbenzyl)oxy]-1H-pyrazol-1-yl}pyridine-4-carboxylic acid], the IC50 lay within 0.1 to 1 µM.

For `CCc1ccc(COc2ccnn2-c2cc(C(=O)O)ccn2)cc1` [Example 56, 2-{5-[(4-ethylbenzyl)oxy]-1H-pyrazol-1-yl}pyridine-4-carboxylic acid], the half-maximal inhibitory concentration (IC50) was 0.1 to 1 µM.

Regarding `O=C(O)c1ccnc(-n2nccc2OCc2cccc(Cl)c2)c1` [Example 58, 2-{5-[(3-chlorobenzyl)oxy]-1H-pyrazol-1-yl}pyridine-4-carboxylic acid], the IC50 is 0.1 to 1 µM.

`COC(=O)c1ccnc(-n2nccc2OCc2ccc(F)c(F)c2)c1` [Example 63, methyl 2-{5-[(3,4-difluorobenzyl)oxy]-1H-pyrazol-1-yl}pyridine-4-carboxylate]: the IC50 was 0.1 to 1 µM.

For the compound `COC(=O)c1ccnc(-n2nccc2OCc2ccc(Cl)cc2)c1` [Example 64, Methyl 2-{5-[(4-chlorobenzyl)oxy]-1H-pyrazol-1-yl}pyridine-4-carboxylate], the IC50 lay within 0.1 to 1 µM.

Consider `O=C(O)c1ccnc(-n2nccc2OCC2CCC(F)(F)CC2)c1` [Example 71, 2-{5-[(4,4-difluorocyclohexyl)methoxy]-1H-pyrazol-1-yl}pyridine-4-carboxylic acid], for which the IC50 fell in the range of 1 to 10 µM.

Regarding `O=C(O)c1ccnc(-n2nccc2OCc2ccc(Cl)cc2F)c1` [Example 75, 2-{5-[(4-chloro-2-fluorobenzyl)oxy]-1H-pyrazol-1-yl}pyridine-4-carboxylic acid], the IC50 fell in the range of 1 to 10 µM.

For `O=C(O)c1ccnc(-n2nccc2OCc2ccc(F)c(Cl)c2)c1` [Example 76, 2-{5-[(3-chloro-4-fluorobenzyl)oxy]-1H-pyrazol-1-yl}pyridine-4-carboxylic acid], the half-inhibitory concentration (IC50) was 1 to 10 µM.

As to `O=C(O)c1ccnc(-n2nccc2OCc2ccc(F)cc2F)c1` [Example 86, 2-[5-[(2,4-difluorophenyl)methoxy]pyrazol-1-yl]pyridine-4-carboxylic acid], the IC50 lay in the range of 1 to 10 µM.

Regarding `COc1cc(Cl)ccc1COc1ccnn1-c1cc(C(=O)O)ccn1` [Example 90, 2-[5-[(4-chloro-2-methoxyphenyl)methoxy]pyrazol-1-yl]pyridine-4-carboxylic acid], the IC50 was 0.1 to 1 µM.

Take `Cc1ccc(COc2ccnn2-c2cc(C(=O)O)ccn2)cc1Cl` [Example 92, 2-[5-[(3-chloro-4-methylphenyl)methoxy]pyrazol-1-yl]pyridine-4-carboxylic acid]: the IC50 lay in the range of 0.1 to 1 µM.

Take `Cc1ccc(COc2ccnn2-c2cc(C(=O)O)ccn2)cc1F` [Example 93, 2-[5-[(3-fluoro-4-methylphenyl)methoxy]pyrazol-1-yl]pyridine-4-carboxylic acid]: the IC50 was 0.1 to 1 µM.

With `Cc1ccc(COc2ccnn2-c2cc(C(=O)O)ccn2)c(F)c1F` [Example 94, 2-[5-[(2,3-difluoro-4-methylphenyl)methoxy]pyrazol-1-yl]pyridine-4-carboxylic acid], the IC50 lay within 1 to 10 µM.

Regarding `COC(=O)c1ccnc(-n2nccc2OCc2ccc(C#N)cc2)c1` [Example 98, methyl 2-[5-[(4-cyanophenyl)methoxy]pyrazol-1-yl]pyridine-4-carboxylate], the half-inhibitory concentration (IC50) is 1 to 10 µM.

For `N#Cc1ccc(COc2ccnn2-c2cc(C(=O)O)ccn2)cc1` [Example 99, 2-[5-[(4-cyanophenyl)methoxy]pyrazol-1-yl]pyridine-4-carboxylic acid], the IC50 is 0.1 to 1 µM.

For the compound `O=C(O)c1ccnc(-n2nccc2OCc2ccc(F)cc2OCc2ccc(F)cc2)c1` [Example 118, 2-[5-[[4-fluoro-2-[(4-fluorophenyl)methoxy]phenyl]methoxy]pyrazol-1-yl]pyridine-4-carboxylic acid], the IC50 was in the range of 1 to 10 µM.

Take `O=C(O)c1ccnc(-n2nccc2OCc2ccc(F)cc2CCc2ccc(F)cc2)c1` [Example 121, 2-[5-[[4-fluoro-2-[2-(4-fluorophenyl)ethyl]phenyl]methoxy]pyrazol-1-yl]pyridine-4-carboxylic acid]: the IC50 is 1 to 10 µM.

For the compound `CCc1cc(C#N)ccc1COc1ccnn1-c1cc(C(=O)O)ccn1` [Example 126, 2-[5-[(4-cyano-2-ethylphenyl)methoxy]pyrazol-1-yl]pyridine-4-carboxylic acid], the IC50 was more than 10 µM.

`Cc1cc(F)ccc1COc1ccnn1-c1cc(C(=O)O)ccn1` [Example 128, 2-[5-[(4-fluoro-2-methylphenyl)methoxy]pyrazol-1-yl]pyridine-4-carboxylic acid]: the 50% inhibitory concentration (IC50) fell in the range of 0.1 to 1 µM.

Regarding `CCc1cc(F)ccc1COc1ccnn1-c1cc(C(=O)O)ccn1` [Example 129, 2-[5-[(2-ethyl-4-fluorophenyl)methoxy]pyrazol-1-yl]pyridine-4-carboxylic acid], the IC50 was 1 to 10 µM.

For the compound `Cc1ccc(COc2ccnn2-c2cc(C(=O)O)ccn2)c(Cl)c1` [Example 130, 2-[5-[(2-chloro-4-methylphenyl)methoxy]pyrazol-1-yl]pyridine-4-carboxylic acid], the IC50 was 1 to 10 µM.

On to `Cc1ccc(COc2ccnn2-c2cc(C(=O)O)ccn2)c(F)c1` [Example 131, 2-[5-[(2-fluoro-4-methylphenyl)methoxy]pyrazol-1-yl]pyridine-4-carboxylic acid], for which the IC50 lay in the range of 1 to 10 µM.

In the case of `Cc1ccc(COc2ccnn2-c2cc(C(=O)O)ccn2)c(C)c1` [Example 132, 2-[5-[(2,4-dimethylphenyl)methoxy]pyrazol-1-yl]pyridine-4-carboxylic acid], the IC50 is 0.1 to 1 µM.

Consider `Cc1ccc(COc2ccnn2-c2cc(C(=O)O)ccn2)c(C#N)c1` [Example 134, 2-[5-[(2-cyano-4-methylphenyl)methoxy]pyrazol-1-yl]pyridine-4-carboxylic acid], for which the concentration for half-maximal inhibition (IC50) fell in the range of 1 to 10 µM.

In the case of `CC(Oc1cc(Cl)ccc1COc1ccnn1-c1cc(C(=O)O)ccn1)c1ccccc1` (centres unmarked) [Example 136, 2-[5-[[4-chloro-2-(1-phenylethoxy)phenyl]methoxy]pyrazol-1-yl]pyridine-4-carboxylic acid], the IC50 lay within 1 to 10 µM.

As for `CC(Oc1cc(F)ccc1COc1ccnn1-c1cc(C(=O)O)ccn1)c1ccccc1` (centres unmarked) [Example 137, 2-[5-[[4-fluoro-2-(1-phenylethoxy)phenyl]methoxy]pyrazol-1-yl]pyridine-4-carboxylic acid], the IC50 is 1 to 10 µM.

Regarding `O=C(O)c1ccnc(-n2nccc2OCc2ccc(Cl)c(OCc3ccc(F)cc3)c2)c1` [Example 138, 2-[5-[[4-chloro-3-[(4-fluorophenyl)methoxy]phenyl]methoxy]pyrazol-1-yl]pyridine-4-carboxylic acid], the concentration for half-maximal inhibition (IC50) lay in the range of 1 to 10 µM.

In the case of `O=C(O)c1ccnc(-n2nccc2OCc2ccc(Cl)c(OCC3CC3)c2)c1` [Example 140, 2-[5-[[4-chloro-3-(cyclopropylmethoxy)phenyl]methoxy]pyrazol-1-yl]pyridine-4-carboxylic acid], the IC50 fell in the range of 1 to 10 µM.

For the compound `O=C(O)c1ccnc(-n2nccc2OCc2ccc(Cl)c(OCC(F)(F)F)c2)c1` [Example 141, 2-[5-[[4-chloro-3-(2,2,2-trifluoroethoxy)phenyl]methoxy]pyrazol-1-yl]pyridine-4-carboxylic acid], the IC50 lay in the range of 1 to 10 µM.

In the case of `Cc1cc(Br)ccc1COc1ccnn1-c1cc(C(=O)O)ccn1` [Example 142, 2-[5-[(4-bromo-2-methylphenyl)methoxy]pyrazol-1-yl]pyridine-4-carboxylic acid], the IC50 was in the range of 1 to 10 µM.

Turning to `Cc1cc(I)ccc1COc1ccnn1-c1cc(C(=O)O)ccn1` [Example 144, 2-[5-[(4-iodo-2-methylphenyl)methoxy]pyrazol-1-yl]pyridine-4-carboxylic acid], the IC50 lay within 1 to 10 µM.

Regarding `COc1cc(I)ccc1COc1ccnn1-c1cc(C(=O)O)ccn1` [Example 145, 2-[5-[(4-iodo-2-methoxyphenyl)methoxy]pyrazol-1-yl]pyridine-4-carboxylic acid], the IC50 is 1 to 10 µM.

Take `CCc1ccc(COc2ccnn2-c2cc(C(=O)O)ccn2)c(F)c1` [Example 151, 2-[5-[(4-ethyl-2-fluorophenyl)methoxy]pyrazol-1-yl]pyridine-4-carboxylic acid]: the 50% inhibitory concentration (IC50) is 1 to 10 µM.
